Nine molecules from ChEMBL document CHEMBL1681734, “hNK2 receptor antagonists. The use of intramolecular hydrogen bonding to increase solubility and membrane permeability” (Bioorg Med Chem Lett, 2011) can be followed below.

Converted amounts (≈) assume the structure as drawn.

The target in data set [1] is T1, Substance-K receptor (Homo sapiens, UniProt P21452).
T1 sequence (P21452 whole entry): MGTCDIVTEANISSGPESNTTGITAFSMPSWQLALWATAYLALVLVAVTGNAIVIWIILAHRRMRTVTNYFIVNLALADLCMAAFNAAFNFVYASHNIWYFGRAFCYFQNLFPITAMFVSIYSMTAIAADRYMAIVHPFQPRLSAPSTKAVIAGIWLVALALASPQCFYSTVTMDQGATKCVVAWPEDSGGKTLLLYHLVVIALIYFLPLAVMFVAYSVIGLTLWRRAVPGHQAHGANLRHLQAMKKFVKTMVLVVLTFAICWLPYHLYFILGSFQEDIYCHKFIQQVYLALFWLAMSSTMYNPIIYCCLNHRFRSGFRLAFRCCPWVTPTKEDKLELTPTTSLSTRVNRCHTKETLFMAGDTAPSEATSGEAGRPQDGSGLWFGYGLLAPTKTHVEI
Kind of data set: Displacement of [125I]neurokinin A from human NK2 receptor after 30 mins.

Data set [2] is described as follows: Aqueous solubility of the compound at pH 6.4. It counts as physicochemical.
The nature of data set [3]: Permeability across apical to basolateral side in human Caco2 cells at 100 uM. The data set is classed as ADME, cell-based. Particulars: Caco-2, read-out: permeability.
Data set [4] is described as follows: Membrane permeability by PAMPA assay. It counts as ADME. As to conditions: read-out: permeability. A general note: In PAMPA a lipid-coated filter parts donor from acceptor wells.

What is called Ki is a measure of affinity in units of concentration, obtained from inhibition or displacement. A low value points to a stronger hold on the target. The solubility is the concentration that dissolves in the medium under given conditions. Read a high solubility as a readily soluble substance. Turning to `O=C(NC1(C(=O)N[C@@H](Cc2ccccc2)C(=O)NCC2CCN(CC3CCOCC3)CC2)CCCC1)c1ccc(-n2cccc2)cc1`, in data set [1], the inhibition constant Ki was 0.234 nM. The solubility in data set [2] is 1450 µg/mL (≈ 2.27 mM). The Papp A→B at 100 µM in data set [3] was < 1 ×10⁻⁶ cm/s.
In data set [1], `O=C(NC1(C(=O)N[C@@H](Cc2ccccc2)C(=O)NCC2CCN(CC3CCOCC3)CC2)CCCC1)c1ccc(-n2cccc2)cc1Cl` gave a Ki of 3.98 nM. Besides, the Papp in data set [4] worked out at 0.16 ×10⁻⁶ cm/s. Besides, in data set [2], the solubility is > 2820 µg/mL. Besides, the Papp A→B at 100 µM in data set [3] turned out to be 4.21 ×10⁻⁶ cm/s.
Molecule `O=C(NC1(C(=O)N[C@@H](Cc2ccccc2)C(=O)NCC2CCN(CC3CCOCC3)CC2)CCCC1)c1ccc(-n2cccc2)cc1F` gave a Ki in data set [1] of 3.24 nM. For the same molecule, the Papp in data set [4] is 0.66 ×10⁻⁶ cm/s. Moreover, in data set [2], the solubility was > 2860 µg/mL. For the same molecule, the Papp A→B at 100 µM in data set [3] was found to be 13.8 ×10⁻⁶ cm/s.
`CCCCc1ccc(C(=O)NC2(C(=O)N[C@@H](Cc3ccccc3)C(=O)NCC3CCN(CC4CCOCC4)CC3)CCCC2)cc1`: in data set [2], the solubility was > 2410 µg/mL.
On the same count and under the same terms, as for `CCCCc1ccc(C(=O)NC2(C(=O)N[C@@H](Cc3ccccc3)C(=O)NCC3CCN(CC4CCOCC4)CC3)CCCC2)nc1`, the figure is > 6600 µg/mL.
For the molecule `O=C(NC1(C(=O)N[C@H](CCCN2CCN(CC3CCOCC3)CC2)Cc2ccccc2)CCCC1)c1ccc2ccccc2c1`, the Ki in data set [1] was 0.324 nM. Further, in data set [4], the Papp turned out to be 5.96 ×10⁻⁶ cm/s. Moreover, in data set [2], the solubility came out at 1570 µg/mL (≈ 2.57 mM). The Papp A→B at 100 µM in data set [3] came to 14.7 ×10⁻⁶ cm/s.
With `O=C(NC1(C(=O)N[C@H](CCCN2CCN(CC3CCOCC3)CC2)Cc2ccccc2)CCCC1)c1cc2ccccc2cn1`, the inhibition constant Ki in data set [1] is 2.04 nM. In addition, the Papp in data set [4] came out at 15.5 ×10⁻⁶ cm/s. Besides, the concentration in solution in data set [2] (solubility) came to 2800 µg/mL (≈ 4.58 mM). For the same molecule, the Papp A→B at 100 µM in data set [3] is 25.2 ×10⁻⁶ cm/s.
For `COc1cc2ccccc2cc1C(=O)NC1(C(=O)N[C@H](CCCN2CCN(CC3CCOCC3)CC2)Cc2ccccc2)CCCC1`, the Ki in data set [1] is 8.32 nM. The Papp in data set [4] is 11.9 ×10⁻⁶ cm/s. The molecule further had a solubility in data set [2] of 3070 µg/mL (≈ 4.79 mM). The Papp A→B at 100 µM in data set [3] worked out at 13.6 ×10⁻⁶ cm/s.
For `COc1c(C(=O)NC2(C(=O)N[C@H](CCCN3CCN(CC4CCOCC4)CC3)Cc3ccccc3)CCCC2)ccc2ccccc12`, in that order: 44.7 nM, 6.77 ×10⁻⁶ cm/s, 1910 µg/mL (≈ 2.98 mM) and 11.7 ×10⁻⁶ cm/s.
